These results are taken from patent US9296734B2 (AMGEN INC., priority 2013, dated 2016).

Data set [1] deals with Aβ40 in conditioned medium of cells stably expressing Amyloid Precursor Protein (APP). The data set is described as follows: In vitro BACE cell-based assay (Aβ40 sandwich ELISA). Particulars: Homo sapiens, read-out: HEK cell assay IC50. The method in brief: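 Secreted Aβ40 was quantified by sandwich ELISA (pAb40 capture, biotinylated 6E10 detection, Europium time-resolved fluorescence). IC50 derived from percent inhibition versus concentration.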
A general note: In an ELISA, binding on a coated surface is turned into a signal by an enzyme label.

For data set [2], the system named is Abeta 40 in CSF and brain. The data set is described as follows: In vivo inhibition of beta-secretase: Abeta 40 reduction in CSF and brain of the rat. Particulars: 10 mpk (unless otherwise noted), after 4 hrs. An excerpt: In Vivo Inhibition of Beta-Secretase
Several animal models, including mouse, rat, dog, and monkey, may be used to screen for inhibition of beta-secretase activity in vivo following administration of a test compound sample. Animals used in this invention can be wild type, transgenic, or gene knockout animals. […] A separate group of animals receive 2% hydroxypropyl methylcellulose, 1% Tween80 alone, containing no test compound, and serve as a vehicle-control group. At the end of the test period, animals are sacrificed and brain tissues, plasma or cerebrospinal fluid are collected. […] Homogenates are centrifuged at 355,000 g, 4° C. for 30 minutes. CSF or brain supernatants are then analyzed for the presence of A-beta peptide by specific sandwich ELISA assays based on ECL (Electrochemiluminescence) technology. For example, rat Abeta40 is measured using biotinylated-4G8 (Signet) as a capture antibody and Fab40 (an in-house antibody specific to the C-terminal of Abeta40) as a detection antibody.
Actual vehicles used: Oral: 2% HPMC, 1% Tween80, pH 2.2

Data set [3] concerns the target Beta Secretase enzyme (BACE) (Homo sapiens (Human), UniProt P56817). The data set is described as follows: In vitro enzymatic BACE FRET assay. The class given is biochemical. The following applies: read-out: BACE 1 FRET assay IC50. The method in brief: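 Reactions ran in 0.05 M acetate pH 4.2 with 10% DMSO final and 100 uM genapol. They were started with 50 nM peptide FRET substrate (fluorophore and quencher flanking the BACE cleavage site) and incubated one hour. Tris addition raised the pH to neutral to stop the reaction before fluorescence reading.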

Data set [4] addresses Cathepsin D (Cat D) (Homo sapiens (Human), UniProt P07339). In words: In vitro enzymatic Cathepsin D (Cat D) FRET assay. The data set is classed as biochemical. Particulars: read-out: CatD IC50. The method in brief:
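CHO-expressed recombinant Cat D cleaves a fluorophore/quencher FRET peptide (20 nM) in 0.05 M citrate pH 3.5, 5 mM CHAPS, 10% DMSO final, over 1 h. Tris addition neutralizes pH to stop the reaction; fluorescence read at excitation 500 nm, emission 580 nm.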

Data set [5] concerns Aβ in lumbar CSF. The following applies: healthy volunteers, oral dosing of 30 or 90 mg; cited from earlier work.
The conditions of data set [6]: higher compound dose given for three months; cited from earlier work.
In data set [7] the test system is CSF Aβ40. The following applies: healthy individuals, 36 h post-dose, cited from earlier work.
The mark [8] stands for this setting: HEK293, average IC50, HEK cell assay.
[9] abbreviates: Abeta 40, rat CSF, read-out: % reduction of rat CSF levels at 10 pmk.
Where [10] appears, read: Abeta 40, rat brain, read-out: % reduction of rat brain levels at 10 mpk.
[11] abbreviates: average IC50, BACE enzyme assay.
Where [12] appears, read: average IC50, cathepsin D enzyme assay.

Where two headings read alike, the source gives them in different places.

Broadly, the IC50 is the concentration at which inhibition is half-maximal.

Beta Secretase enzyme (BACE), sequence (P56817 46-501): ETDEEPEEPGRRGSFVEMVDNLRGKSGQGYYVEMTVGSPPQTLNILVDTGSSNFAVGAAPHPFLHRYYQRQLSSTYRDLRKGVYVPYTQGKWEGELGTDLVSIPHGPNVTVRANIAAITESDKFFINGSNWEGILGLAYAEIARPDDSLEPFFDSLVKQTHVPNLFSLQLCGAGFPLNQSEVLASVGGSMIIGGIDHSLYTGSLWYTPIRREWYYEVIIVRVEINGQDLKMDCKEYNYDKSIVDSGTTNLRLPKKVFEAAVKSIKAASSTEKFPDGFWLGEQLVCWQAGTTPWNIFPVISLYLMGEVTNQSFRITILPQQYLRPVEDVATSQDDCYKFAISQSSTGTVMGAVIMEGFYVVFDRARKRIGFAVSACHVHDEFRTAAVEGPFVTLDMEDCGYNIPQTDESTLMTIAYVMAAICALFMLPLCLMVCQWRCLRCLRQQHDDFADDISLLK
Cathepsin D (Cat D), sequence (P07339 65-412, species assumed): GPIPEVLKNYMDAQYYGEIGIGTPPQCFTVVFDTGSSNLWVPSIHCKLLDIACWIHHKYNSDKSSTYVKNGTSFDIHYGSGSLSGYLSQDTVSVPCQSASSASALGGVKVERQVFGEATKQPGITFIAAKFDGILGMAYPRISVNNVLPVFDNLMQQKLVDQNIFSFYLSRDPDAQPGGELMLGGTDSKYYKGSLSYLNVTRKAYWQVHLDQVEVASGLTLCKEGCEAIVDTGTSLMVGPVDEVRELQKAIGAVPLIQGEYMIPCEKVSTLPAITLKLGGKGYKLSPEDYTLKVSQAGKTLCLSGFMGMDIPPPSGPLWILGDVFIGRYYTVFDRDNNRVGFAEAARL

Take `C#CCOc1cnc(C(=O)Nc2cc(F)c(F)c([C@]3(CF)C[C@@H](C(F)(F)F)OC(N)=N3)c2)cn1` [Example 154, N-(3-((4S,6S)-2-amino-4-(fluoromethyl)-6-(trifluoromethyl)-5,6-dihydro-4H-1,3-oxazin-4-yl)-4,5-difluorophenyl)-5-(prop-2-yn-1-yloxy)pyrazine-2-carboxamide]: the concentration for half-maximal inhibition (IC50) in data set [1] (setting [8]) was 0.0096 µM; in data set [3] (setting [11]) it was 0.0014 µM; in data set [4] (setting [12]), > 400 µM. The inhibition in vivo at 10 mg/kg is 67% in data set [2] (setting [9]) and 71% in data set [2] (setting [10]).
`CC#CCOc1cnc(C(=O)Nc2cc(F)c(F)c([C@]3(CF)C[C@@H](C(F)(F)F)OC(N)=N3)c2)cn1` [Example 155, N-(3-((4S,6S)-2-amino-4-(fluoromethyl)-6-(trifluoromethyl)-5,6-dihydro-4H-1,3-oxazin-4-yl)-4,5-difluorophenyl)-5-(but-2-yn-1-yloxy)pyrazine-2-carboxamide]: the IC50 in data set [1] (setting [8]) is 0.00367 µM; in data set [3] (setting [11]), 0.00087 µM; in data set [4] (setting [12]), > 400 µM. Moreover, the inhibition in vivo at 10 mg/kg in data set [2] (setting [9]) was 26%; in data set [2] (setting [10]) it was 11%.
For `C[C@@]1(c2cc(NC(=O)c3ccc(Cl)cn3)cc(F)c2F)C[C@@H](C(F)(F)F)OC(N)=N1` [Example 164, N-(3-((4S,6S)-2-amino-4-methyl-6-(trifluoromethyl)-5,6-dihydro-4H-1,3-oxazin-4-yl)-4,5-difluorophenyl)-5-chloropicolinamide], the IC50 in data set [1] (setting [8]) stood at 0.0052 µM; in data set [3] (setting [11]) it was 0.024 µM; in data set [4] (setting [12]), 1350 µM. In addition, the inhibition in vivo at 10 mg/kg in data set [2] (setting [9]) is 77%; in data set [2] (setting [10]), 75%.
As to `COc1cnc(C(=O)Nc2cc(F)c(F)c([C@]3(C)C[C@@H](C(F)(F)F)OC(N)=N3)c2)cn1` [Example 165, N-(3-((4S,6S)-2-amino-4-methyl-6-(trifluoromethyl)-5,6-dihydro-4H-1,3-oxazin-4-yl)-4,5-difluorophenyl)-5-methoxypyrazine-2-carboxamide], the IC50 in data set [1] (setting [8]) turned out to be 0.0098 µM; in data set [3] (setting [11]), 0.078 µM; in data set [4] (setting [12]) it was 5350 µM. Besides, the inhibition in vivo at 10 mg/kg is 75% in data set [2] (setting [9]) and 76% in data set [2] (setting [10]).
Consider `COc1cnc(C(=O)Nc2cc(F)c(F)c([C@]3(C)C[C@@H](C(F)(F)F)OC(N)=N3)c2)c(Cl)c1` [Example 169, N-(3-((4S,6S)-2-amino-4-methyl-6-(trifluoromethyl)-5,6-dihydro-4H-1,3-oxazin-4-yl)-4,5-difluorophenyl)-3-chloro-5-methoxypicolinamide], for which the values for the concentration for half-maximal inhibition (IC50) in data set [1] (setting [8]), in data set [3] (setting [11]) and in data set [4] (setting [12]) were 0.0089 µM, 0.037 µM and > 400 µM, respectively. For the same compound, the inhibition in vivo at 10 mg/kg in data set [2] (setting [9]) stood at 48%; in data set [2] (setting [10]) it was 46%.
For the compound `Cc1cc(C(F)F)cnc1C(=O)Nc1cc(F)c(F)c([C@]2(C)C[C@@H](C(F)(F)F)OC(N)=N2)c1` [Example 171, N-(3-((4S,6S)-2-amino-4-methyl-6-(trifluoromethyl)-5,6-dihydro-4H-1,3-oxazin-4-yl)-4,5-difluorophenyl)-5-(difluoromethyl)-3-methylpicolinamide], the results for the IC50 in data set [1] (setting [8]), in data set [3] (setting [11]) and in data set [4] (setting [12]) were 0.017 µM, 0.043 µM and 2060 µM, respectively. The results for the inhibition in vivo at 10 mg/kg in data set [2] (setting [9]) and in data set [2] (setting [10]) were 25% and 10%, respectively.
Take `Cc1cc(NC(=O)c2ccc(Cl)cn2)cc([C@]2(CF)C[C@@H](C(F)(F)F)OC(N)=N2)c1F` [Example 224, N-(3-((4S,6S)-2-amino-4-(fluoromethyl)-6-(trifluoromethyl)-5,6-dihydro-4H-1,3-oxazin-4-yl)-4-fluoro-5-methylphenyl)-5-chloropicolinamide]: the IC50 came to 0.007 µM in data set [1] (HEK293, HEK cells, average); 0.013 µM in data set [3] (average); 515 µM in data set [4] (average). The figures for the inhibition in vivo at 10 mg/kg in data set [2] (setting [9]) and in data set [2] (setting [10]) were 62% and 51%, respectively.
As to `COc1cnc(C(=O)Nc2cc(C)c(F)c([C@]3(CF)C[C@@H](C(F)(F)F)OC(N)=N3)c2)cn1` [Example 227, N-(3-((4S,6S)-2-amino-4-(fluoromethyl)-6-(trifluoromethyl)-5,6-dihydro-4H-1,3-oxazin-4-yl)-4-fluoro-5-methylphenyl)-5-methoxypyrazine-2-carboxamide], the IC50 in data set [1] (HEK293, HEK cells, average) was 0.023 µM; in data set [3] (average), 0.03 µM; in data set [4] (average) it was > 400 µM. Moreover, the inhibition in vivo at 10 mg/kg was found to be 69% in data set [2] (setting [9]) and 65% in data set [2] (setting [10]).
On to `C[C@@]1(c2cc(-c3cncnc3)c(F)cc2F)CCSC(N)=N1` [LY2811376, (S)-4-(2,4-difluoro-5-pyrimidin-5-yl-phenyl)-4-methyl-5,6-dihydro-4H-[1,3]thiazin-2-ylamine], for which the “Aβ reductions in lumbar CSF” value in data set [5] was “Prominent and long-lasting Aβ reductions in lumbar CSF”.
Turning to `C[C@@]1(c2cc(-c3cncnc3)c(F)cc2F)CCSC(N)=N1` [LY 2811376], in data set [6], the rat toxicology finding entry was “damaged the pigment epithelium of the rat's eye”.
For `CN1C(=N)N[C@](C)(c2cc(NC(=O)c3ccc(F)cn3)ccc2F)CS1(=O)=O` [MK-8931], the “reduction of CSF Aβ40 concentrations” value is recorded as 75% in data set [7] (single dose of 100 mg) and 92% in data set [7] (single dose of 550 mg).
